Measured values reported in patent US20030083381A1, “Hair growth or hair formation controlling agents” (priority 2000, published 2003).
Where two headings read alike, the source gives them in different places.

Key:
[1] = biological target: EP4 Receptor (Oryctolagus cuniculus, UniProt Q28691); test: Magnus experiment using rabbit saphenous vein (relaxation of 40 mM KCl contraction); format: cell-based
Procedure: Magnus Experiment Using Rabbit Saphenous Vein
Investigation of agonistic activity to EP4 was carried out by an improved method of the method of Lydford et al. (S. J. Lydford et al., Br. J. Pharmacol. 117, 13-20 (1996)) using rabbit saphenous veins. That is, each rabbit was deeply anesthetized by administering pentobarbital (50 mg/kg) to auricular vein, and then sacrificed by bleeding by cutting carotid artery. Saphenous vein was carefully but quickly removed and transferred into Krebs solution (NaCl 118.1 mM, KCl 5.31 mM, MgSO4 1.01 mM, CaCl2 3.52 mM, NaH2PO4 1.09 mM, NaHCO3 25.0 mM, glucose 9.99 mM, pH 7.4) which was preliminarily saturated with 95% O2+5% CO2 mixed gas. The connective tissue and the fatty tissue of each saphenous vein were isolated using a scissors for ophthalmology to prepare a ring preparation with a width of about 4 mm. This ring preparation was mounted on a hook for blood vessels, and then suspended in a Magnus tube filled with Krebs solution aerated with 95% O2+5% CO2 mixed gas and kept at 37° C. The isometric tension of each blood vessel was recorded on a recorder through an isometric transducer. To each blood vessel, a base tension of 1.0 g was applied and the blood vessel tissue was stabilized for about 30 minutes until the baseline became stabilized. After the baseline became stable, the blood vessel was contracted with 40 mM KCl, and the shrinkage and washing were repeated until the contraction became stable. After the contraction with KCl became stable, a thromboxane antagonist S-145 (1000 nM) was applied previously and then cumulative application experiments of Compounds 1 to 7 were carried out. More specifically, the reactivity to PGE2 which was a positive control drug was measured, and after washing, the action of each compound was studied. The effectiveness of each drug was expressed in terms of the concentration (EC50) at which the rate of relaxation of the test drug to the contraction by 40 mM KCl was 50%. EC50 value was calculated by plotting logarithm of the concentration of each drug along the abscissa and plotting the rate of relaxation with respect to the contraction by 40 mM KCl along the ordinate, and by determining the concentration at which the height of contraction was 50% based on the linear area of the concentration-reaction curve in each experiment. [drawing 39]

[2] = tested on: epilated rabbit models; test: Hair-growth/generation test in epilated rabbits, subcutaneous, once a day from 2nd to 20th day; format: in vivo; details: for Length of New Hair (mm) / Rate of Hair-generated Area (%): mean ± standard error
Procedure: (§1) Hair-Growing or Hair-Generating Action
The test was carried out as follows. The hair on the back of each rabbit was removed with an electric clipper and evacream was applied for a short time to the back so as to epilate the back. After wiping the epilated region with water, test compound was subcutaneously administered to the back at a dose of 0.25 ml/kg (dissolved in 0.9% sodium chloride solution) once a day from the second day to 20th day after epilation. The state of generation of hair was observed and the length of the hair was measured.

[3] = biological target: T1, human PGE2 receptor subtype EP4 (Homo sapiens, UniProt P35408); test: Receptor binding experiment using PGE2 receptor subtype-expressing cells (3H-PGE2 displacement, membrane fractions); details: human PGE2 receptor subtypes EP2, EP3, EP4
T1 construct: expressed in transfected cells; host or cells: COS-7 cells, transient expression; membrane specimens
T1 sequence (P35408 whole entry): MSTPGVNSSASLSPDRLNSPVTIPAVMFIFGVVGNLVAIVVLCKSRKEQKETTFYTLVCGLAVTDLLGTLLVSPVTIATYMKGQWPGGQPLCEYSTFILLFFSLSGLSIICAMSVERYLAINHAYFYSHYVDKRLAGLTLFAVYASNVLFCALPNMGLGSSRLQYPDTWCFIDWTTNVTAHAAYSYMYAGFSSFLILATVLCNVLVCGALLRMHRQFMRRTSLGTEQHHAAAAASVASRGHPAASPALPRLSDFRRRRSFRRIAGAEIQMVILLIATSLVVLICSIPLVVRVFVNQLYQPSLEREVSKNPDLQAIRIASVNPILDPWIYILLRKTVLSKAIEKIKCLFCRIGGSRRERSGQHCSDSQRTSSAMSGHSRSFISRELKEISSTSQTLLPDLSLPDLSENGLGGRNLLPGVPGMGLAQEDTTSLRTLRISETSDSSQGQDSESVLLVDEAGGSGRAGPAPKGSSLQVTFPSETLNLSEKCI
Procedure: Receptor Binding Experiment Using PGE2 Receptor Subtype-expressing Cells
The compound of the Formula (I) described above was tested for its selective binding activity to EP4 receptor by using PGE2 receptor subtype-expressing cells.
According to the reported method (Breyer,R. M. et al., J. Biol. Chem. 269,6163-6169(1994)), cloned human PGE2 receptor subtypes (EP3 and EP4) were transiently expressed by COS-7 cells. EP2 was stably expressed by CHO cells. These cells were prepared into membrane specimens. Each of the prepared membrane fractions (10 μg/tube) was incubated with a reaction solution containing ^3H—PGE2 at 30° C. for 1 hour. The reaction was terminated by iced buffer (10 mM MES(pH 6.0), 10 mM MgCl2, 1 mM EDTA), and the resultant was subjected to filtration by means of suction under reduced pressure to trap the bound ^3H-PGE2 on a glass filter (GF/C), followed by measurement of the radioactivity with a liquid scintillation counter.
The Kd value was determined from Scatchard plot according to the conventional method. Non-specific binding was determined in terms of the amount of bound radioactivity in the presence of an excess amount (5 μM) of non-labeled PGE2. […]
The dissociation constant Ki (nM) of Compound 1 was calculated according to the following equation: […]

[4] = tested on: epilated rabbit models; test: Hair-growth/generation test in young epilated rabbits (8 weeks old), subcutaneous, once a day from 2nd to 7th day; format: in vivo, New Zealand White rabbits; details: young rabbits 8 weeks old
Procedure: as §1
The test was carried out as follows. The hair on the back of each rabbit was removed and evacream was applied for a short time to the back so as to epilate the back. After wiping the epilated region with water, test compound was subcutaneously administered to the back at a dose of 0.25 ml/kg once a day from the second day to 7th day after epilation. The length of the hair was measured.

[5] = relaxation of contraction by 40 mM KCl, thromboxane antagonist S-145 (1000 nM) present, read-out: EC50 (nM), agonistic activity to EP4 receptor in rabbit saphenous vein relaxation reaction

EP4 Receptor, sequence (Q28691 whole entry): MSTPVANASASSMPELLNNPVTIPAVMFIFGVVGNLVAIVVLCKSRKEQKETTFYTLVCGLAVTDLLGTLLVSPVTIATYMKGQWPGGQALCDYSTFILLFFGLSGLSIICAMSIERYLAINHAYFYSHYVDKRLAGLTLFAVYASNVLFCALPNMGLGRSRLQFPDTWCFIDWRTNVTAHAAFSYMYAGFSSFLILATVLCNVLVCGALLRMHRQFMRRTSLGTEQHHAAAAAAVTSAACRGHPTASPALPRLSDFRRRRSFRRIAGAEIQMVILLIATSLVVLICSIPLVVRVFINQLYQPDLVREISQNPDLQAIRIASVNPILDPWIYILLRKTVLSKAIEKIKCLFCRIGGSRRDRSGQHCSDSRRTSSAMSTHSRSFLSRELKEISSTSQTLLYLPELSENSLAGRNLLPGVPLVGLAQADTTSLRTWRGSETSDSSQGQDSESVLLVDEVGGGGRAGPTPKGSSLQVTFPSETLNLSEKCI

## O=C(O)CCc1cccc2c1O[C@H]1C[C@@H](O)[C@H](/C=C/[C@@H](O)CC3CCCCC3)[C@@H]21 [Compound 1]
[1]
  EC50: 6 nM
[2]; 0.03 mg/kg s.c., 20th day
  Rate of Rabbits with 50% or More Hair-Generated Area: 1/4
  Length of New Hair (mm): 6.0 ± 0.6 mm
  Rate of Hair-generated Area (%): 15.8 ± 13.2%
[2]; 0.1 mg/kg s.c., 20th day
  Rate of Hair-generated Area (%): 48.8 ± 13.6%
[2]; 0.1 mg/kg s.c., 20th day, p < 0.05 vs. control
  Length of New Hair (mm): 7.3 ± 0.5 mm
[2]; epilated rabbits, s.c. once a day
  length of the new hair (in words): increased
[3]
  selectivity to EP4 receptor subtype (binding abilities to other receptor subtypes are low): high selectivity

## OC(C=CC1C(O)CC2Oc3c(CCc4nnn[nH]4)cccc3C21)CC1CCCCC1 (stereo not shown) [Compound 2]
[1]; [5]
  EC50: 3 nM
[4]; 0.03 mg/kg s.c., 7th day, mean ± standard error, p < 0.05 vs. control
  Length of New Hair (mm): 11.7 ± 0.5 mm
[4]; s.c. once a day
  length of the new hair (in words): increased

## O=C(O)C=Cc1cccc2c1OC1CC(O)C(C=CC(O)CC3CCCCC3)C21 (stereo not shown) [Compound 3]
[1]
  EC50: 6 nM

## CC(C)(Cc1ccccc1)C(O)C=CC1C(O)CC2Oc3c(CCC(=O)O)cccc3C21 (stereo not shown) [Compound 4]
[1]
  EC50: 7 nM

## CC(C)(C(O)C=CC1C(O)CC2Oc3c(OCC(=O)O)cccc3C21)C1CCCCC1 (stereo not shown) [Compound 5]
[1]; [5]
  EC50: 26 nM

## O=C(O)CSc1cccc2c1OC1CC(O)C(C=CC(O)CC3CCCCC3)C21 (stereo not shown) [Compound 6]
[1]; [5]
  EC50: 33 nM

## O=C(O)CCc1cccc2c1OC1CC(O)C(C=CC(O)C(F)(F)C3CCCCC3)C21 (stereo not shown) [Compound 7]
[1]
  EC50: 2 nM
